Data published in patent publication US10918645B2 (LIFEARC, priority 2016, dated 2021).

Tests used:
Settings in all cases: 1 μM inhibitor concentration
AMPK(hum) = experiment: AMPK kinase selectivity assay; assay type: biochemical, human
Protocol: AMPK (5-20 mU diluted in 50 mM Hepes pH 7.5, 1 mM DTT, 0.02% Brij35) is assayed against SAMS substrate peptide ([…]) in a final volume of 25.5 μl containing 50 mM Hepes pH 7.5, 1 mM DTT, 0.02% Brij35, 0.4 mM SAMS peptide, 0.196 mM AMP, 10 mM magnesium acetate and 0.05 mM [33P-g-ATP] (50-1000 cpm/pmole) and incubated for 30 min at room temperature. Assays are stopped by addition of 5 μl of 0.5 M (3%) orthophosphoric acid and then harvested onto P81 Unifilter plates with a wash buffer of 50 mM orthophosphoric acid.

MST2 = MST2 (Homo sapiens (Human), UniProt Q13188); experiment: MST2 kinase selectivity assay; assay type: biochemical
Protocol: MST2 (5-20 mU diluted in 50 mM Tris pH 7.5, 0.1 mM EGTA, 0.1% b-mercaptoethanol, 100 µM Vanadate) is assayed against MBP in a final volume of 25.5 μl containing 50 mM Tris pH 7.5, 0.05% b-mercaptoethanol, 0.33 mg/ml MBP, 10 mM magnesium acetate and 0.02 mM [33P-g-ATP] (50-1000 cpm/pmole) and incubated for 30 min at room temperature. Assays are stopped by addition of 5 μl of 0.5 M (3%) orthophosphoric acid and then harvested onto P81 Unifilter plates with a wash buffer of 50 mM orthophosphoric acid.

MST4 = MST4 (Homo sapiens (Human), UniProt Q9P289); experiment: MST4 kinase selectivity assay; assay type: biochemical
Protocol: 5-20 mU of MST4 (diluted in 50 mM Tris (pH 7.5), 0.1 mM EGTA) is assayed against MBP in a final volume of […] containing 50 mM Tris (pH 7.5), 0.1 mM EGTA, 0.33 mg/ml MBP, 10 mM magnesium acetate and 0.02 mM [33P-g-ATP](500-1000 cpm/pmole) and incubated for 30 mins at room temperature. Assays are stopped by addition of […] of 0.5M (3%) orthophosphoric acid. Assays are harvested onto P81 Unifilter plates using a wash buffer of 50 mM orthophosphoric acid.

PKCz = PKCz (Homo sapiens (Human), UniProt Q05513); experiment: PKCz kinase selectivity assay; assay type: biochemical
Protocol: PKC zeta (5-20 mU diluted in 50 mM Tris pH 7.5, 0.1 mM EGTA, 0.1% b-mercaptoethanol, 1 mg/ml BSA, 100 μM Vanadate) is assayed against a substrate peptide ([…]) in a final volume of 25.5 μl containing 50 mM Tris pH 7.5, 0.05% b-mercaptoethanol, […], 300 μM substrate peptide, 10 mM magnesium acetate and 0.005 mM [33P-g-ATP] (50-1000 cpm/pmole) and incubated for 30 min at room temperature. Assays are stopped by addition of 5 μl of 0.5 M (3%) orthophosphoric acid and then harvested onto P81 Unifilter plates with a wash buffer of 50 mM orthophosphoric acid.

BTK = BTK (Homo sapiens (Human), UniProt Q06187); experiment: BTK kinase selectivity assay; assay type: biochemical
Protocol: BTK (5-20 mU diluted in 50 mM Tris pH 7.5, 0.1 mM EGTA, 1 mg/ml BSA) is assayed against a substrate peptide ([…]) in a final volume of 25.5 μl containing 50 mM Tris pH 7.5, 300 µM substrate peptide, 10 mM magnesium acetate and 0.05 mM [33P-g-ATP] (50-1000 cpm/pmole) and incubated for 30 min at room temperature. Assays are stopped by addition of 5 μl of 0.5 M (3%) orthophosphoric acid and then harvested onto P81 Unifilter plates with a wash buffer of 50 mM orthophosphoric acid.

NUAK1 = NUAK1 (Homo sapiens (Human), UniProt O60285); experiment: NUAK1 kinase selectivity assay; assay type: biochemical
Protocol: NUAK1 (5-20 mU diluted in 50 mM Tris pH 7.5, 0.1 mM EGTA, 0.1% 0-mercaptoethanol, 1 mg/ml BSA) is assayed against […] in a final volume of 25.5 μl containing 50 mM Tris pH 7.5, 0.1 mM EGTA, 0.3 mM […], 10 mM magnesium acetate and 0.02 mM [33P-γ-ATP] (50-1000 cpm/pmole) and incubated for 30 min at room temperature. Assays are stopped by addition of 5 μl of 0.5 M (3%) orthophosphoric acid and then harvested onto P81 Unifilter plates with a wash buffer of 50 mM orthophosphoric acid.

FGF-R1 = FGF-R1 (Homo sapiens (Human), UniProt P11362); experiment: FGF-R1 kinase selectivity assay; assay type: biochemical
Protocol: FGF-R1 (5-20 mU diluted in 50 mM Tris pH 7.5, 0.1 mM EGTA, 1 mg/ml BSA) is assayed against a substrate peptide (Poly Glut Tyr) in a final volume of 25.5 μl containing 50 mM Tris pH 7.5, 1 mg/ml substrate peptide, 10 mM magnesium acetate and 0.02 mM [33P-g-ATP] (50-1000 cpm/pmole) and incubated for 30 min at room temperature. Assays are stopped by addition of 5 μl of 0.5 M (3%) orthophosphoric acid and then harvested onto P81 Unifilter plates with a wash buffer of 50 mM orthophosphoric acid.

GCK = GCK (Homo sapiens (Human), UniProt Q12851); experiment: GCK kinase selectivity assay; assay type: biochemical
Protocol: GCK (5-20 mU diluted in 50 mM Tris pH 7.5, 0.1 mM EGTA, 0.1% β-mercaptoethanol, 1 mg/ml BSA) is assayed against MBP in a final volume of 25.5 μl containing 50 mM Tris pH 7.5, 0.1 mM EGTA, 0.33 mg/ml MBP, 10 mM magnesium acetate and 0.02 mM [33P-γ-ATP] (50-1000 cpm/pmole) and incubated for 30 min at room temperature. Assays are stopped by addition of 5 μl of 0.5 M (3%) orthophosphoric acid and then harvested onto P81 Unifilter plates with a wash buffer of 50 mM orthophosphoric acid.

HER4 = HER4 (Homo sapiens (Human), UniProt Q15303); experiment: HER4 kinase selectivity assay; assay type: biochemical
Protocol: HER4 (5-20 mU diluted in 50 mM Tris pH 7.5, 0.1 mM EGTA, 0.1% β-mercaptoethanol, 1 mg/ml BSA) is assayed against Poly Glut Tyr in a final volume of […] containing 50 mM Tris pH 7.5, 0.1 mM EGTA, 1 mg/ml Poly Glut Tyr, 10 mM magnesium acetate and 0.005 mM [33P-γ-ATP] (50-1000 cpm/pmole) and incubated for 30 min at room temperature. Assays are stopped by addition of 5 μl of 0.5 M (3%) orthophosphoric acid and then harvested onto P81 Unifilter plates with a wash buffer of 50 mM orthophosphoric acid.

NUAK1, sequence (O60285 whole entry, species assumed): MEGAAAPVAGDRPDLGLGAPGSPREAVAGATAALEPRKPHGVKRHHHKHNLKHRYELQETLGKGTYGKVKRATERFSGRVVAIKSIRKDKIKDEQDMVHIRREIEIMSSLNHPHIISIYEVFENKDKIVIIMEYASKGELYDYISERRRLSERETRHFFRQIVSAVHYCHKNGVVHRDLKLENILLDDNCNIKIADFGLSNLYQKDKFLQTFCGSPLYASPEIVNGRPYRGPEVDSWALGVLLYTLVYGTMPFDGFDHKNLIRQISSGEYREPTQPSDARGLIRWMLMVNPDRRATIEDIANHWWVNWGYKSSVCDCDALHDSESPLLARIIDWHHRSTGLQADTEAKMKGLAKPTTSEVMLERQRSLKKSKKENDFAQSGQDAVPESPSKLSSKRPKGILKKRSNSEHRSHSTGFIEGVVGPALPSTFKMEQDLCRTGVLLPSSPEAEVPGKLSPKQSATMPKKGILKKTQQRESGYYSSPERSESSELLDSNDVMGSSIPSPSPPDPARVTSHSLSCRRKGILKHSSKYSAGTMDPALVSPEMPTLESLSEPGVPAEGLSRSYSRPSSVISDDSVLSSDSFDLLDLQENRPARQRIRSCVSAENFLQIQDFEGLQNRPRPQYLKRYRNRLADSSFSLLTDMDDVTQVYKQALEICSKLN
GCK, sequence (Q12851 whole entry): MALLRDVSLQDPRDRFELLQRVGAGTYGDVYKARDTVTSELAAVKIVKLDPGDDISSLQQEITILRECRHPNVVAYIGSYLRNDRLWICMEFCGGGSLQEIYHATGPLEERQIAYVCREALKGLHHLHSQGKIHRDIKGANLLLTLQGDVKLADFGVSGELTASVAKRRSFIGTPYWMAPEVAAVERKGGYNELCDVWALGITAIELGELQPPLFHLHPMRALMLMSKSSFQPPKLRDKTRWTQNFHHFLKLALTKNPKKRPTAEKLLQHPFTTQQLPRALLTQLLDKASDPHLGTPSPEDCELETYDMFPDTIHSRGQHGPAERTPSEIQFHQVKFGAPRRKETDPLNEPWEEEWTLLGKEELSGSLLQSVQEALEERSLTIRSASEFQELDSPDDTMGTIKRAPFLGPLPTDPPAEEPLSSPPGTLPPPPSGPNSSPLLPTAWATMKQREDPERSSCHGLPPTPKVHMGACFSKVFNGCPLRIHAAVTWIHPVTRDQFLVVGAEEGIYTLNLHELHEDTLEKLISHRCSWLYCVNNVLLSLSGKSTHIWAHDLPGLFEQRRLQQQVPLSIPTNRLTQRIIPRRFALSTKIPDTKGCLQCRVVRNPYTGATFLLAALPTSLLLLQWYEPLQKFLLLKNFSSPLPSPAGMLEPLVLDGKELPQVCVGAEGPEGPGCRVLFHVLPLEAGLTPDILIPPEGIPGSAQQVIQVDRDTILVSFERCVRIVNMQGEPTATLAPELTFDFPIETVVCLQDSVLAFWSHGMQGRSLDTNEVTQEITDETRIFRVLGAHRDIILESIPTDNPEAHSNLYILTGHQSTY
MST4, sequence (Q9P289 whole entry, species assumed): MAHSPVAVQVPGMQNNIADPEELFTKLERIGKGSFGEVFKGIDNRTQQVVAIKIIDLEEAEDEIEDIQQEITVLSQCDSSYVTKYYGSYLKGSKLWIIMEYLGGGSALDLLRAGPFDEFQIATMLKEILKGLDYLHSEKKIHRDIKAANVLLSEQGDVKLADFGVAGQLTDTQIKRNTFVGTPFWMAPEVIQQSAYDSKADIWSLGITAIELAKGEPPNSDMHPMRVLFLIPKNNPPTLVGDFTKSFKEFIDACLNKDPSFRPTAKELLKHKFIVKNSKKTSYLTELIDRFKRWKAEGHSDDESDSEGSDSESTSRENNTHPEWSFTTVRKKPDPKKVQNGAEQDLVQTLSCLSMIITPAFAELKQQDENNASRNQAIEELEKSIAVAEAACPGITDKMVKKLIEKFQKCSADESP
HER4, sequence (Q15303 26-1308, species assumed): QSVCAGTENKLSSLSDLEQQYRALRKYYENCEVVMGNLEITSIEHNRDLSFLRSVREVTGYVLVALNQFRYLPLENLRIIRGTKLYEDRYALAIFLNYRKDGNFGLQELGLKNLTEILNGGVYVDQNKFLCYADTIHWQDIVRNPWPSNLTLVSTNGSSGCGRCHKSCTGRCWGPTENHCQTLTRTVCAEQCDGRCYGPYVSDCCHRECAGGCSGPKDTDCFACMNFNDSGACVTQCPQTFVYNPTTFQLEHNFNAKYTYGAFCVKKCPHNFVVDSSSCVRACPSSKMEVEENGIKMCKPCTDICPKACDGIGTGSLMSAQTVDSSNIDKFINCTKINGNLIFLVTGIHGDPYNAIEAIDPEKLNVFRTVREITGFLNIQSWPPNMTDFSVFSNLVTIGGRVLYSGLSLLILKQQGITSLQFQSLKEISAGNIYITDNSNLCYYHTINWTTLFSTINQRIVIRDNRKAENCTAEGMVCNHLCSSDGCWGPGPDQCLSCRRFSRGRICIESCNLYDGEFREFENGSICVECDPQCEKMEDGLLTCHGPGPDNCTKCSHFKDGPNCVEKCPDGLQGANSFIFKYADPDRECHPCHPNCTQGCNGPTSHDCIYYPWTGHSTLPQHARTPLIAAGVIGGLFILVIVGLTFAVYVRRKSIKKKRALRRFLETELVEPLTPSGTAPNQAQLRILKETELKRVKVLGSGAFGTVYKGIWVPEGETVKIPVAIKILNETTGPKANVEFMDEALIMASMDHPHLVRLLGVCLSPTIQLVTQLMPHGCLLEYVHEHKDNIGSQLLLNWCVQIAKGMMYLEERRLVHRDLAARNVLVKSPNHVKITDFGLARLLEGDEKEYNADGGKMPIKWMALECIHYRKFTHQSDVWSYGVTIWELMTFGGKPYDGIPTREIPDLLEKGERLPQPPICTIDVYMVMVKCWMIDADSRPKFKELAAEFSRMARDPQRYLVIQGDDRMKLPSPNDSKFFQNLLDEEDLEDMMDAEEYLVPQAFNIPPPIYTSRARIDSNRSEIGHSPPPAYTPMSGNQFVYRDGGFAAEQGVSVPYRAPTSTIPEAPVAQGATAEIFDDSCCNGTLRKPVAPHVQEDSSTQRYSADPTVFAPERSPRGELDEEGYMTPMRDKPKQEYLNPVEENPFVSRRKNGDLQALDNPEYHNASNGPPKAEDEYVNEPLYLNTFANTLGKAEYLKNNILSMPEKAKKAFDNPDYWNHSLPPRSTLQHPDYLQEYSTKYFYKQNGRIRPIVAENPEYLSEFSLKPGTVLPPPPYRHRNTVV
BTK, sequence (Q06187 whole entry, species assumed): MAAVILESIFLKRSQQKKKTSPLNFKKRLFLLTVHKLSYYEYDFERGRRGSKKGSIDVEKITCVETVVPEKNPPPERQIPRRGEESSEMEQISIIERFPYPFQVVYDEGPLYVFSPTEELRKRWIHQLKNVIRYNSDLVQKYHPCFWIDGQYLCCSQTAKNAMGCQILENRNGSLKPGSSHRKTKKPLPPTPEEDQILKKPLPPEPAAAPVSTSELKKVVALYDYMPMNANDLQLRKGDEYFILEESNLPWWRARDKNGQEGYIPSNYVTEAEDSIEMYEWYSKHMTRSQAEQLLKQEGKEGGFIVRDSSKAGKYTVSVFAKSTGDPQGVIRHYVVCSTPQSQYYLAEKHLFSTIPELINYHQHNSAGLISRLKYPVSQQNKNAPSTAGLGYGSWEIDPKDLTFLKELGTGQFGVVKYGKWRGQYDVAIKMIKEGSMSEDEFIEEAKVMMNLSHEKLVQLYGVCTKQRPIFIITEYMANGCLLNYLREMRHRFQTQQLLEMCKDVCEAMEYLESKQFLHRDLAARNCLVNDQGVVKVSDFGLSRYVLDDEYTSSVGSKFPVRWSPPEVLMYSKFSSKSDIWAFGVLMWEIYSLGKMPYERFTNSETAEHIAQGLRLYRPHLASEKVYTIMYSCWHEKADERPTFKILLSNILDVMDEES
MST2, sequence (Q13188 whole entry, species assumed): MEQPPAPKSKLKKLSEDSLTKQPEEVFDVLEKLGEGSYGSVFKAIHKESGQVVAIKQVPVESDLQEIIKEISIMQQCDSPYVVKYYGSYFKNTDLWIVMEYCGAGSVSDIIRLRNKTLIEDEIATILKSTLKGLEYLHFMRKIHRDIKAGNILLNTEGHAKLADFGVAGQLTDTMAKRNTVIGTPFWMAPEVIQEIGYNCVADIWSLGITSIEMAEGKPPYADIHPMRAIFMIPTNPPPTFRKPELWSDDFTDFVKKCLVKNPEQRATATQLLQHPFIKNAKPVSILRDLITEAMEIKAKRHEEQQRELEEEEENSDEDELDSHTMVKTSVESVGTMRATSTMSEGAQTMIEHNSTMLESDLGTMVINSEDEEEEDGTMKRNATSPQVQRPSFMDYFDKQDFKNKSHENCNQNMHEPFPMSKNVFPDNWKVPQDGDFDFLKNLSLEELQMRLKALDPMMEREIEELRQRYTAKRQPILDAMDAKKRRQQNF
PKCz, sequence (Q05513 whole entry): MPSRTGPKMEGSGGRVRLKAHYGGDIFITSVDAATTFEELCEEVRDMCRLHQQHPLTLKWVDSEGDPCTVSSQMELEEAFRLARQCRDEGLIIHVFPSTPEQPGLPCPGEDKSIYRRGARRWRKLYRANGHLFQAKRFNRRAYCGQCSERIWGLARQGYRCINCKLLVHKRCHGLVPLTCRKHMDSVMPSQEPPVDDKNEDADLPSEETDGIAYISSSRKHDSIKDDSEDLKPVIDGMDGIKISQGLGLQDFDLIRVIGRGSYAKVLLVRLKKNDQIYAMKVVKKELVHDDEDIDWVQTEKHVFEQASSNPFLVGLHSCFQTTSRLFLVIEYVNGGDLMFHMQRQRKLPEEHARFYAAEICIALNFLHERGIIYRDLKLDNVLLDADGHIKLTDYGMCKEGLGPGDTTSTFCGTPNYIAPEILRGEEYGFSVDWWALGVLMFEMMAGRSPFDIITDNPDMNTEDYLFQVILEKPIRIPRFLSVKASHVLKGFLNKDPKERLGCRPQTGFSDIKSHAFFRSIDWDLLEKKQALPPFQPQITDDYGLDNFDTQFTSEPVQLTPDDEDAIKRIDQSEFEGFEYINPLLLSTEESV

For c1cc2[nH]nc3c2c(n1)N(C1CCC1)CCC3 [Example 22, 6-cyclobutyl-6,7,8,9-tetrahydro-2H-1,2,5,6-tetraazabenzo[cd]azulene], the “percentage inhibition of AMPK(hum)” value (AMPK(hum)) was 16 percentage, the “percentage inhibition of MST2” value (MST2) was 20 percentage and the “percentage inhibition of MST4” value (MST4) was 6 percentage. For the same molecule, the “percentage inhibition of PKCz” value (PKCz) was 0 percentage, the “percentage inhibition of BTK” value (BTK) was 0 percentage and the “percentage inhibition of NUAK1” value (NUAK1) was 8 percentage. The “percentage inhibition of FGF-R1” value (FGF-R1) was 11 percentage, the “percentage inhibition of GCK” value (GCK) was 56 percentage and the “percentage inhibition of HER4” value (HER4) was 8 percentage.
With c1cc2[nH]nc3c2c(n1)N(C1CCCC1)CCC3 [Example 23, 6-cyclopentyl-6,7,8,9-tetrahydro-2H-1,2,5,6-tetraazabenzo[cd]azulene] the “percentage inhibition of MST2” value (MST2) was 0 percentage, the “percentage inhibition of MST4” value (MST4) was 0 percentage and the “percentage inhibition of PKCz” value (PKCz) was 0 percentage. The “percentage inhibition of BTK” value (BTK) was 0 percentage, the “percentage inhibition of NUAK1” value (NUAK1) was 17 percentage and the “percentage inhibition of FGF-R1” value (FGF-R1) was 19 percentage. For the same molecule, the “percentage inhibition of GCK” value (GCK) was 41 percentage and the “percentage inhibition of HER4” value (HER4) was 3 percentage.
For c1cc2[nH]nc3c2c(n1)N(C1CCOCC1)CCC3 [Example 29, 6-(tetrahydro-2H-pyran-4-yl)-6,7,8,9-tetrahydro-2H-1,2,5,6-tetraazabenzo[cd]azulene], the “percentage inhibition of AMPK(hum)” value (AMPK(hum)) was 6 percentage, the “percentage inhibition of MST2” value (MST2) was 10 percentage and the “percentage inhibition of MST4” value (MST4) was 1 percentage. The “percentage inhibition of PKCz” value (PKCz) was 0 percentage, the “percentage inhibition of BTK” value (BTK) was 0 percentage and the “percentage inhibition of NUAK1” value (NUAK1) was 7 percentage. For the same molecule, the “percentage inhibition of FGF-R1” value (FGF-R1) was 12 percentage, the “percentage inhibition of GCK” value (GCK) was 67 percentage and the “percentage inhibition of HER4” value (HER4) was 10 percentage.
For CN1CCC(N2Cc3ccccc3-c3n[nH]c4ccnc2c34)CC1 [Example 55], the “percentage inhibition of AMPK(hum)” value (AMPK(hum)) was 64 percentage, the “percentage inhibition of MST2” value (MST2) was 28 percentage and the “percentage inhibition of MST4” value (MST4) was 0 percentage. For the same molecule, the “percentage inhibition of PKCz” value (PKCz) was 0 percentage, the “percentage inhibition of BTK” value (BTK) was 0 percentage and the “percentage inhibition of NUAK1” value (NUAK1) was 76 percentage. For the same molecule, the “percentage inhibition of FGF-R1” value (FGF-R1) was 9 percentage, the “percentage inhibition of GCK” value (GCK) was 71 percentage and the “percentage inhibition of HER4” value (HER4) was 0 percentage.
For CC(C)n1ncc2c1CN(C1CCN(C)CC1)c1nccc3[nH]nc-2c13 [Example 68], the “percentage inhibition of AMPK(hum)” value (AMPK(hum)) was 32 percentage, the “percentage inhibition of MST2” value (MST2) was 2 percentage and the “percentage inhibition of MST4” value (MST4) was 0 percentage. For the same molecule, the “percentage inhibition of PKCz” value (PKCz) was 1 percentage, the “percentage inhibition of BTK” value (BTK) was 0 percentage and the “percentage inhibition of NUAK1” value (NUAK1) was 65 percentage. For the same molecule, the “percentage inhibition of FGF-R1” value (FGF-R1) was 35 percentage, the “percentage inhibition of GCK” value (GCK) was 27 percentage and the “percentage inhibition of HER4” value (HER4) was 1 percentage.
